The data set is described as follows: physchem. The note with it: octan-1-ol/water.

Broadly, the logD is lipophilicity at a set pH, counting ionised and neutral species. Higher therefore signals a more lipophilic compound. On to `O=c1[nH]n(C(c2ccccc2)c2ccncc2)c(=O)c2c(O)c3ccc(Cl)cc3nc12` (centres undefined), for which the logD (pH 7.4, LogD7.4) is 1.1.

On to `NC(=O)c1cccc(O[C@@H]2C[C@H]3CC[C@@H](C2)N3CCc2ccccc2)c1`, for which the logD (pH 7.4) stood at 2.

`NC(=O)Cc1nc(-c2ccccc2)cs1` showed a logD (pH 7.4, LogD7.4) of 1.3.

`CC#Cc1ccnc(-c2cccc([C@@]3(c4cc(C)c(=O)n(CC)c4)N=C(N)c4c(F)cccc43)c2)c1` yielded a logD (pH 7.4, LogD7.4) of 4.4.

With `O=C(NS(=O)(=O)c1ccc(NCCSc2ccccc2)c([N+](=O)[O-])c1)c1ccc(N2CCNCC2)cc1`, the logD (pH 7.4, LogD7.4) was -0.04.

For the setting “pH 7.4, LogD7.4”, `O=C(COc1ccccc1)N1CCOCC1` showed a logD of 0.75.

Consider `CC(=O)c1ccc2c(c1)N(CCN1CCC(NCc3ccc4c(n3)NC(=O)CO4)CC1)C(=O)CO2`, for which, under “pH 7.4”, the logD is 0.37.

The compound `NC(=O)c1ccc(Br)cc1` had a logD (pH 7.4, LogD7.4) of 1.75.

Consider `O=C1CCCCCN1` [CAPROLACTAM], for which, for the setting “pH 7.4, LogD7.4”, the logD is -0.08.

Turning to `CNc1cnc(-c2ccc(F)cc2)n(CC(=O)NC(C(=O)C(F)(F)F)C(C)C)c1=O` (centres undefined), the logD (pH 7.4, LogD7.4) was found to be 1.86.

Under “pH 7.4, LogD7.4”, `O=S(=O)(Nc1cccc2[nH]ncc12)c1cccs1` had a logD of 1.7. This logD and that of the compound before are within 0.2 log units of each other.

`CC(=O)N1CCN(CC(O)COc2ccc(Br)cc2)CC1` (centres undefined) had a logD (pH 7.4, LogD7.4) of 1.6.

For the compound `Oc1c2ncc3ccccc3c2nn1-c1ccc(Cl)cc1`, the logD (pH 7.4, LogD7.4) worked out at 1.52. The logD values of the last two compounds are within 0.2 log units of each other.

On to `COc1cc2ncc(C(N)=O)c(Nc3cccc(Cl)c3F)c2cc1OC`, for which, for the setting “pH 7.4, LogD7.4”, the logD stood at 3.6.

Turning to `COc1cc(N2CCCN(C)CC2)c2[nH]c(C(=O)Nc3ccc(N4CCOCC4)cc3)cc(=O)c2c1`, the logD (pH 7.4, LogD7.4) is 2.1.

Turning to `CCCc1c(OCCCOc2ccc3c(=O)cc(C(=O)O)oc3c2CCC)ccc(C(C)=O)c1O`, the logD (pH 7.4, LogD7.4) amounted to 3.

For the setting “pH 7.4, LogD7.4”, `CCOc1cc2nnc(C(N)=O)c(Nc3cccc(Cl)c3F)c2cc1N1CCN(C)CC1` returned a logD of 1.99.

For `Cc1cc(C)c2c(N)c(C(=O)NCc3ccccc3)sc2n1`, the logD (pH 7.4, LogD7.4) amounted to 3.41.

Consider `CN1CC=C(c2cccc(O)c2)CC1`, for which the logD (pH 7.4) was 0.53.

`CC(NC(=O)C1(N)CCN(c2ncnc3[nH]ccc23)CC1)c1ccc(F)cc1` (centres undefined): the logD (pH 7.4, LogD7.4) was found to be 2.4.

For the setting “pH 7.4, LogD7.4”, `CCOc1ccc2nc(NC(=O)CC)sc2c1` had a logD of 3.4.

Consider `O=C(NCC12CC3CC(CC(C3)C1)C2)c1ccccc1Br`, for which the logD (pH 7.4, LogD7.4) is 4.15.

Consider `COc1cc(C(=O)Nc2ccc(Cl)c(-c3nc4ccccc4[nH]3)c2)cc(OC)c1OC`, for which the logD (pH 7.4, LogD7.4) came out at 3.83.

Under “pH 7.4, LogD7.4”, `COc1cc(F)ccc1-c1cncc(CNC2CCCCC2)c1` yielded a logD of 2.6.

Turning to `Clc1ccccc1CNC[C@H]1CC[C@H](CNCc2ccccc2Cl)CC1`, for the setting “pH 7.4, LogD7.4”, the logD was 2.74.

For the setting “pH 7.4, LogD7.4”, `Oc1ccc(-c2nc3ccccc3nc2-c2ccc(O)cc2)cc1` had a logD of 2.7.

Where the note is “pH 7.4, LogD7.4”, `CNc1ccc2ncc(-c3cccc(O)c3)n2n1` showed a logD of 2.99.

`CCN(CC)CCCNCc1cc(Cl)c2cccnc2c1O` [CLAMOXYQUIN] yielded a logD (pH 7.4, LogD7.4) of 0.72.

Take `CC#CCn1c(=O)c2c(-c3cncn3C)n(Cc3ccnc4ccc(Cl)cc34)nc2n(CC2CC2)c1=O`: the logD (pH 7.4, LogD7.4) came to 3.61.

`O=Cc1ccccc1B(O)O` yielded a logD (pH 7.4, LogD7.4) of 0.83.

On to `c1ccc2c(c1)nnn2-c1ccncc1`, for which the logD (pH 7.4, LogD7.4) worked out at 1.69.

For the setting “pH 7.4, LogD7.4”, `CC(C)Cn1c(=O)n(C)c(=O)c2c(C(=O)N3CC=CC3)c(Cc3ccccc3C(F)(F)F)sc21` showed a logD of 3.53.

The compound `CC(C)N(c1nnc(N)s1)C(C)C` displayed a logD (pH 7.4, LogD7.4) of 1.49.

For the setting “pH 7.4, LogD7.4”, `CCCCc1ncc(/C=C(\Cc2cccs2)C(=O)O)n1Cc1ccc(C(=O)O)cc1` [EPROSARTAN] showed a logD of -0.9.

For `CC(Cc1cccc(CNCCc2c(Cl)cccc2Cl)c1)NC[C@H](O)c1ccc(O)c2[nH]c(=O)sc12` (some centres undefined), where the note is “pH 7.4, LogD7.4”, the logD was found to be 2.41.

Under “pH 7.4, LogD7.4”, `CCOc1ccccc1-c1ccc(-c2nc3ccc(F)cc3c(C(=O)O)c2C)cc1` showed a logD of 1.18.

Where the note is “pH 7.4, LogD7.4”, `CS(=O)(=O)N1CCOc2cc(COc3ccccc3)cnc21` came in with a logD of 2.4.

Turning to `N[C@H](Cc1c[nH]c2ccccc12)C(=O)O` [D-TRYPTOPHAN], the logD (pH 7.4, LogD7.4) was -0.92.

`C[C@@H]1CN(C(=O)OC(C)(C)C)CCN1c1ncc(OCc2ccc(S(C)(=O)=O)cn2)cn1`: the logD (pH 7.4, LogD7.4) turned out to be 3.

The values above are taken from ChEMBL document CHEMBL3301361, “Experimental in vitro DMPK and physicochemical data on a set of publicly disclosed compounds”.
